Patent EP0147980A2, “A 5-nitro-2-furanyl derivative and its use as an anti-parasitic agent” (Rossignol, Jean François, priority 1983, dated 1985)
Several values for one entry are separate records, joined by “and”; a condition that tells them apart may be missing. Equal values may be shown once.

Tests used:
Format in all cases: in vivo
[1] = Acute oral toxicity study in mice
Protocol: The test chemical was administered as a single 4,000 mg/kg oral dose to five male and five female Swiss mice.

Schistosoma mansoni [2] = assay: Primary curative test against Schistosoma mansoni in hamster
Protocol: The primary curative test evaluates the therapeutic activity of the drug against S. mansoni in hamster. Interpretation of the test is based upon observation of a shift of worms from the portal and mesenteric veins to the liver under the influence of the test drug. Hamsters weighing 150 to 250 grams were exposed to 150-250 S. mansoni cercariae by the ring method. 30 to 35 days after infection, the test drug (compound (I)) was administered as a 200 mg/kg daily dose for four consecutive days. The drug was administered by oral gavage suspended in gum syrup. Hamsters were sacrificed three days after the last drug treatment. The liver was removed, squashed between two slides, and the number of live and dead worms in the liver were recorded. From experience, the total worm burden in the portal circulation of S. mansoni infected hamsters ranges from 20 to 50 worms, i.e., […] of the total number of cercariae injected. Over 80% of these worms reside in the extra-hepatic portal and mesenteric veins. Thus, when the liver is removed in control animals about 10 worms could be counted in the liver.

S. japonicum = assay: Primary curative test against S. japonicum in hamsters; settings: 1 g/kg single oral gavage
Source text: The primary curative test evaluates the therapeutic activity of the drug against S. japonicum in hamsters. Interpretation of the test is based upon observation of a shift of worms from the portal and mesenteric veins to the liver under the influence of the test drug. In addition the mortality of the worms found in the liver, portal and mesenteric veins is also an important criteria of effectiveness in establishing the schistosomicidal effectiveness of the drug. Hamsters weighing 150 to 250 grams were exposed to 100 S. japonicum cercariae by the ring method. 35 to 45 days after infection, the test compound (I) was administered as a single […] by oral gavage, the product being suspended in gum syrup. Out of 10 infected animals, 5 were so treated, with 5 being used as control animals. Hamsters were sacrificed three days after treatment; the liver was removed as well as the portal and mesenteric veins, squashed between two slides and the number of live or dead worms in the liver, the portal and mesenteric veins was recorded.

Schistosoma mansoni [3] = assay: Primary prophylactic test (mortality test) against Schistosoma mansoni in mice
Protocol: The primary screening method used to evaluate prophylactic activity against Schistosoma mansoni is a mortality test. Mice are exposed to a massive number of cercariae by tail immersion. In untreated control mice this exposure produces a reproducible mortality pattern with 99+% of the mice dying between 20 and 30 days (mean survival time 24 days). The test compound is administered in a single dose two days after cercarial exposure. A compound is considered active if mice survive to 49 days, at which time they are sacrificed and examined for worms.
The test is of the "prophylactic"-type in the sense that the drug action is on the immature migrating schistosomes and prevents the development of adult worms in the portal circulation.
Mice weighing 18 to 23 grams were exposed to 3500-4500 infective S. mansoni cercariae by tail immersion for 30 minutes, and subsequently housed in groups of five per cage (5 test mice and 5 control mice). Two days after infection, the test compound of the formula (I) was administered subcutaneously as a single 1,280 mg/kg dose suspended in peanut oil to one group of five mice.
Mouse mortality was recorded daily for 49 days after infection. On the 49th day, survivors were sacrificed and the total worm burden was determined by perfusion of the liver and portal circulation (perf-o-suction technique).
Control mice exposed to at least 3500 cercariae and not treated with the test compound (I) experience 99+% mortality, with nearly all deaths occurring between about day 20 and day 30. In treated mice, deaths occurring within one week after drug administration are assumed to be induced by the toxic action of the drug itself, since, control mice rarely die during this period. The survival of drug treated mice to 49 days is interpreted as evidence of drug action which kills or otherwise prevents the development of the migrating immature schistosomes. The- survival of only one mouse has, in our experience, been difficult to reproduce, and, in general, a compound is not considered active unless two or more mice survive to 49 days.

[4] = individual hamsters 1-5, 200 mg/kg daily for four consecutive days, oral gavage, sacrificed three days after last treatment, 200 mg/kg
[5] = individual treated hamsters 1-5
[6] = individual surviving mice (Mouse 1-3) sacrificed day 49, 1,280 mg/kg s.c.
[7] = mean of three surviving mice, day 49, 1,280 mg/kg s.c.

COc1ccc(NC(=O)C=Cc2ccc([N+](=O)[O-])o2)c(C)c1 [compound (I), N-(4-methoxy-2-methylphenyl)-3-(5-nitro-2-furanyl) propenamide]
LD50 at 336 h ([1]; mouse, in vivo, po, administered orally in mice): > 4000 mg/kg
clinical observation, weights and macroscopic examination of organs ([1]; single 4,000 mg/kg oral dose, five male and five female Swiss mice, 14 days): no adverse pattern
shift of worms from the portal and mesenteric veins to the liver (Schistosoma mansoni [2]; 200 mg/kg daily x 4 days oral, parasites in the liver were dead): marked shift of the worms from the portal and mesenteric veins to the liver
effective dose (Schistosoma mansoni [2]; for four consecutive days, oral gavage, hamster): 200 mg/kg per day
No. of worms found in the liver, Treated Animals, F (Schistosoma mansoni [2]; [4]): 17 and 6 and 18 and 60 and 54
No. of worms found in the liver, Treated Animals, M (Schistosoma mansoni [2]; [4]): 17 and 10 (2×) and 50 and 46
Mean No. of worms found in the liver, Treated Animals, F (Schistosoma mansoni [2]; mean of five treated hamsters, 200 mg/kg daily x 4 days oral, controls 12.0): 31.0
Mean No. of worms found in the liver, Treated Animals, M (Schistosoma mansoni [2]; mean of five treated hamsters, 200 mg/kg daily x 4 days oral, controls 15.3): 26.6
shift of worms from the portal and mesenteric veins to the liver (S. japonicum): marked shift of the worms from the portal and mesenteric veins to the liver
worms killed on the average in the liver, the portal and mesenteric veins (S. japonicum; average of five treated hamsters): about 86%
No. of worms found, Liver, Female (S. japonicum; [5]): 7 and 6 (3×) and 4
No. of worms found, Mesenteric, Female (S. japonicum; [5]): 5 and 4 (3×) and 2
No. of worms found, Mesenteric, Male (S. japonicum; [5]): 7 (2×) and 6 and 4 and 8
No. of worms found, Portal, Female (S. japonicum; [5]): 0
No. of worms found, Portal, Male (S. japonicum; [5]): 0
No. of worms found, Liver, Male (S. japonicum; individual treated hamsters 1-5, sacrificed three days after treatment): 8 (2×) and 14 (2×) and 9
% dead (S. japonicum; worms, individual treated hamsters 1-5, controls 0): 100% (3×) and 70% and 60%
mice survived until day 49 (Schistosoma mansoni [3]; group of five mice, single 1,280 mg/kg subcutaneous dose in peanut oil two days after infection): Three
day of death of the two test mice that died (Schistosoma mansoni [3]; group of five mice, single 1,280 mg/kg subcutaneous dose, control mice died at days 19, 22, 25, 28 and 32): 41 days
worm burden, Female (Schistosoma mansoni [3]; [6]): 5 and 7 and 6
worm burden, Total (Schistosoma mansoni [3]; [6]): 15 and 19 and 16
worm burden, Male (Schistosoma mansoni [3]; individual surviving mice (Mouse 1-3) sacrificed day 49, 1,280 mg/kg s.c., perfusion of liver and portal circulation): 10 (2×) and 12
worm burden, Female, mean (Schistosoma mansoni [3]; [7]): 6.0
worm burden, Male, mean (Schistosoma mansoni [3]; [7]): 10.6
worm burden, Total, mean (Schistosoma mansoni [3]; [7]): 16.6
activity against the migrating stage of Schistosoma mansoni in mice (Schistosoma mansoni [3]; single subcutaneous administration of 1,280 mg/kg, active = two or more mice survive to 49 days): active
